In PubChem BioAssay (NCI):
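Test compounds were applied to cells in 96-well plates for 48 hours at 5 doses. GI50 is the concentration that inhibits growth by half. TGI marks complete inhibition of growth.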

How the values were obtained:
Assay in all cases: growth of human tumour cells (NCI), 48 h
OVCAR-4 ovarian = test system: OVCAR-4 ovarian
PC-3 prostate = test system: PC-3 prostate
HS 578T breast = test system: HS 578T breast
COLO 205 colon = test system: COLO 205 colon
NCI-H23 lung = test system: NCI-H23 lung
K-562 leukemia = test system: K-562 leukemia
SK-MEL-2 melanoma = test system: SK-MEL-2 melanoma
SK-MEL-28 melanoma = test system: SK-MEL-28 melanoma
786-0 renal = test system: 786-0 renal
MOLT-4 leukemia = test system: MOLT-4 leukemia
SR leukemia = test system: SR leukemia
ACHN renal = test system: ACHN renal
MDA-MB-435 = test system: MDA-MB-435
SNB-19 CNS = test system: SNB-19 CNS
SK-MEL-5 melanoma = test system: SK-MEL-5 melanoma
CCRF-CEM leukemia = test system: CCRF-CEM leukemia
UO-31 renal = test system: UO-31 renal
HCC-2998 colon = test system: HCC-2998 colon
U251 CNS = test system: U251 CNS
HL-60(TB) leukemia = test system: HL-60(TB) leukemia
OVCAR-8 ovarian = test system: OVCAR-8 ovarian
OVCAR-3 ovarian = test system: OVCAR-3 ovarian
UACC-257 melanoma = test system: UACC-257 melanoma
NCI/ADR-RES ovarian = test system: NCI/ADR-RES ovarian
EKVX NSCLC = test system: EKVX NSCLC
SF-268 CNS = test system: SF-268 CNS
OVCAR-5 ovarian = test system: OVCAR-5 ovarian
IGROV1 ovarian = test system: IGROV1 ovarian
UACC-62 melanoma = test system: UACC-62 melanoma
SNB-75 CNS = test system: SNB-75 CNS
HCT-15 colon = test system: HCT-15 colon
M14 melanoma = test system: M14 melanoma
HOP-62 NSCLC = test system: HOP-62 NSCLC
NCI-H522 lung = test system: NCI-H522 lung
SW-620 colon = test system: SW-620 colon
DU-145 prostate = test system: DU-145 prostate
SF-539 CNS = test system: SF-539 CNS
BT-549 breast = test system: BT-549 breast
CAKI-1 renal = test system: CAKI-1 renal
TK-10 renal = test system: TK-10 renal
A549 NSCLC = test system: A549 NSCLC
HCT-116 colon = test system: HCT-116 colon
NCI-H460 lung = test system: NCI-H460 lung
T-47D breast = test system: T-47D breast
HT29 colon = test system: HT29 colon
SN12C renal = test system: SN12C renal
MDA-MB-231 breast = test system: MDA-MB-231 breast
HOP-92 NSCLC = test system: HOP-92 NSCLC
SK-OV-3 ovarian = test system: SK-OV-3 ovarian
NCI-H226 lung = test system: NCI-H226 lung
KM12 colon = test system: KM12 colon
MDA-MB-468 breast = test system: MDA-MB-468 breast
MCF7 breast = test system: MCF7 breast
MALME-3M melanoma = test system: MALME-3M melanoma
RPMI-8226 leukemia = test system: RPMI-8226 leukemia
RXF 393 renal = test system: RXF 393 renal
LOX IMVI melanoma = test system: LOX IMVI melanoma
SF-295 CNS = test system: SF-295 CNS
A498 renal = test system: A498 renal

SMILES: COc1ccc(/C=C/c2nc3ccccc3n3c(-c4cccc([N+](=O)[O-])c4)nnc23)cc1
- GI50 (OVCAR-4 ovarian): 1680 nM
- TGI (OVCAR-4 ovarian): 5.32 µM
- GI50 (PC-3 prostate): 3.01 µM
- TGI (PC-3 prostate): 14.5 µM
- GI50 (HS 578T breast): 3.99 µM
- TGI (HS 578T breast): 20.7 µM
- GI50 (COLO 205 colon): 1760 nM
- TGI (COLO 205 colon): 3.66 µM
- GI50 (NCI-H23 lung): 1510 nM
- TGI (NCI-H23 lung): 3.01 µM
- GI50 (K-562 leukemia): 307 nM
- TGI (K-562 leukemia): 2140 nM
- GI50 (SK-MEL-2 melanoma): 2630 nM
- TGI (SK-MEL-2 melanoma): 9.09 µM
- GI50 (SK-MEL-28 melanoma): 2190 nM
- TGI (SK-MEL-28 melanoma): 4.94 µM
- GI50 (786-0 renal): 1450 nM
- TGI (786-0 renal): 2760 nM
- GI50 (MOLT-4 leukemia): 1210 nM
- TGI (MOLT-4 leukemia): 4.1 µM
- GI50 (SR leukemia): 247 nM
- TGI (SR leukemia): 1360 nM
- GI50 (ACHN renal): 1370 nM
- TGI (ACHN renal): 2660 nM
- GI50 (MDA-MB-435): 1900 nM
- TGI (MDA-MB-435): 5.65 µM
- GI50 (SNB-19 CNS): 5.84 µM
- TGI (SNB-19 CNS): 18.8 µM
- GI50 (SK-MEL-5 melanoma): 2060 nM
- TGI (SK-MEL-5 melanoma): 5.38 µM
- GI50 (CCRF-CEM leukemia): 312 nM
- TGI (CCRF-CEM leukemia): 1150 nM
- GI50 (UO-31 renal): 2000 nM
- TGI (UO-31 renal): 8.8 µM
- GI50 (HCC-2998 colon): 2570 nM
- TGI (HCC-2998 colon): 11.3 µM
- GI50 (U251 CNS): 1520 nM
- TGI (U251 CNS): 3.3 µM
- GI50 (HL-60(TB) leukemia): 1620 nM
- TGI (HL-60(TB) leukemia): 10.9 µM
- GI50 (OVCAR-8 ovarian): 1750 nM
- TGI (OVCAR-8 ovarian): 4.8 µM
- GI50 (OVCAR-3 ovarian): 1270 nM
- TGI (OVCAR-3 ovarian): 2610 nM
- GI50 (UACC-257 melanoma): 3.65 µM
- TGI (UACC-257 melanoma): 15 µM
- GI50 (NCI/ADR-RES ovarian): 2100 nM
- TGI (NCI/ADR-RES ovarian): 6.93 µM
- GI50 (EKVX NSCLC): 3.86 µM
- TGI (EKVX NSCLC): 14.8 µM
- GI50 (SF-268 CNS): 2770 nM
- TGI (SF-268 CNS): 10.2 µM
- GI50 (OVCAR-5 ovarian): 1770 nM
- TGI (OVCAR-5 ovarian): 3.61 µM
- GI50 (IGROV1 ovarian): 1890 nM
- TGI (IGROV1 ovarian): 3.77 µM
- GI50 (UACC-62 melanoma): 1700 nM
- TGI (UACC-62 melanoma): 4.3 µM
- GI50 (SNB-75 CNS): 4.12 µM
- TGI (SNB-75 CNS): 15.9 µM
- GI50 (HCT-15 colon): 948 nM
- TGI (HCT-15 colon): 2250 nM
- GI50 (M14 melanoma): 760 nM
- TGI (M14 melanoma): 2170 nM
- GI50 (HOP-62 NSCLC): 5.47 µM
- TGI (HOP-62 NSCLC): 18.2 µM
- GI50 (NCI-H522 lung): 120 nM
- TGI (NCI-H522 lung): 258 nM
- GI50 (SW-620 colon): 631 nM
- TGI (SW-620 colon): 1870 nM
- GI50 (DU-145 prostate): 1610 nM
- TGI (DU-145 prostate): 4.29 µM
- GI50 (SF-539 CNS): 1440 nM
- TGI (SF-539 CNS): 2750 nM
- GI50 (BT-549 breast): 1380 nM
- TGI (BT-549 breast): 2920 nM
- GI50 (CAKI-1 renal): 2470 nM
- TGI (CAKI-1 renal): 10.4 µM
- GI50 (TK-10 renal): 2870 nM
- TGI (TK-10 renal): 9.9 µM
- GI50 (A549 NSCLC): 2650 nM
- TGI (A549 NSCLC): 11 µM
- GI50 (HCT-116 colon): 1080 nM
- TGI (HCT-116 colon): 2270 nM
- GI50 (NCI-H460 lung): 1690 nM
- TGI (NCI-H460 lung): 4.26 µM
- GI50 (T-47D breast): 3.76 µM
- TGI (T-47D breast): 16.1 µM
- GI50 (HT29 colon): 1120 nM
- TGI (HT29 colon): 2320 nM
- GI50 (SN12C renal): 1140 nM
- TGI (SN12C renal): 2360 nM
- GI50 (MDA-MB-231 breast): 1800 nM
- TGI (MDA-MB-231 breast): 4.55 µM
- GI50 (HOP-92 NSCLC): 1910 nM
- TGI (HOP-92 NSCLC): 4.93 µM
- GI50 (SK-OV-3 ovarian): 5.22 µM
- TGI (SK-OV-3 ovarian): 17.6 µM
- GI50 (NCI-H226 lung): 626 nM
- TGI (NCI-H226 lung): 2490 nM
- GI50 (KM12 colon): 2620 nM
- TGI (KM12 colon): 10.8 µM
- GI50 (MDA-MB-468 breast): 1130 nM
- TGI (MDA-MB-468 breast): 2850 nM
- GI50 (MCF7 breast): 1830 nM
- TGI (MCF7 breast): 10.1 µM
- GI50 (MALME-3M melanoma): 581 nM
- TGI (MALME-3M melanoma): 1980 nM
- GI50 (RPMI-8226 leukemia): 1440 nM
- TGI (RPMI-8226 leukemia): 4.03 µM
- GI50 (RXF 393 renal): 1240 nM
- TGI (RXF 393 renal): 2550 nM
- GI50 (LOX IMVI melanoma): 148 nM
- TGI (LOX IMVI melanoma): 289 nM
- GI50 (SF-295 CNS): 9.61 µM
- TGI (SF-295 CNS): 21.4 µM
- GI50 (A498 renal): 12.4 µM
- TGI (A498 renal): 28.1 µM
